# Measurements published in patent publication US20110039770A1, “INHIBITORS OF PROTEIN KINASE C ISOFORMS AND USES THEREOF” (PHARMAGAP INC., priority 2005, published 2011).
# Where a SMILES comes first, the peptide text is derived from it. The star is where a group is joined. PNA(A) = NCCN(CC(=O)*)C(=O)Cn1cnc2c(N)ncnc21
# Assays:
# PKC-α [1] = molecular target: T1, PKC-α (Rattus norvegicus, UniProt P05696); test: Competition of PRE with PKC-α antibody binding on Western blot, Protocol A, C6Cx43 lysate; settings: C6Cx43 cells
# T1 construct: C6Cx43 cells (rat glioma transfected cells overexpressing connexin 43); endogenous in cells; host or cells: C6Cx43 rat glioma cells (transfected with connexin 43, not with PKC)
# Procedure: The ability of the PRE 1, 2 and 3 (see Table 3 above) to interfere with the binding of a PKC-α-specific polyclonal antibody to PKC-α was determined using the following protocol.
# Cell lysates from either IMR-32 (human neuroblastoma) cells or C6Cx43 cells (rat glioma transfected cells overexpressing connexin 43) were obtained using standard protocols and the proteins of the lysate were separated by SDS PAGE electrophoresis and electrotransferred onto a nitrocellulose membrane. The membrane was incubated for 30 minutes in blocking buffer (TBST) containing the test peptide at either 5× or 20× the concentrations of the primary antibody. A primary polyclonal antibody specific for PKC-α (Santa Cruz Biotechnology, Inc., CA) was then added (15 μg/ml) and the membrane incubated for a further 45 minutes. Finally, the primary antibody was detected with a secondary antibody conjugated to alkaline phosphatase using standard procedures. The intensity of the band corresponding to PKC-α was assessed by scanning and densitometry using the Gel-Pro software (Media Cybernetics) to obtain relative band intensities (average of 3 replicas). Control assays were conducted as described above except that blocking buffer without peptide was used.
# The results are expressed as relative band intensity and as a percentage of the intensity of the corresponding band in the control assay (“Relative intensity (%)”). “% inhibition” relates to the percentage of the PKC-α band that is inaccessible to the antibody.
# PKC-α [2] = molecular target: PKC-α (Homo sapiens, UniProt P17252); test: Competition of PRE with PKC-α antibody binding on Western blot, Protocol A, IMR-32 lysate; design: endogenous PKC-α in (A) untreated human neuroblastoma (IMR-32) cells; endogenous in cells; host or cells: IMR-32 human neuroblastoma cells; settings: IMR-32 cells
# MDA MB231 cells = test: Matrigel invasion/migration with EGF as chemoattractant; type: cell-based, human; settings: 24 h; 10 ng/ml EGF
# Procedure: Experiments were conducted to investigate the effect of compound TIM 10 (5 mM dose) on migration of human breast cancer cells (MDA MB231) with and without EGF (10 ng/ml) as a chemo-attractant. A standard a two-chamber culture system (BD BIOcoat™ Matrigel™ Invasion Chamber; BD Biosciences Clont, Discovery labware, Immunocytometry system Pharmingen) was employed for these experiments. Control chambers used in the following experiment are similar to the invasion chambers except that no Matrigel matrix is present, thus allowing cells to freely reach the lower membrane surface through the membrane pores.
# The ability of compound TIM 10 to inhibit invasion/migration of MDA MB231 cells in the presence of the chemoattractant EGF was measured as described above using EGF 10 ng/mL as the chemoattractant.
# PKC alpha = PKC alpha (Homo sapiens, UniProt P17252); test: Kinase-Glo Luminescent Kinase Assay; type: biochemical; settings: read-out: % Inhibition PKC-α
# Procedure: (§1) Compounds TIM 10, 11, 13, 14, 15, and 18-22 (see Table 28) were tested for their ability to inhibit the activity of PKC-alpha, beta 1, delta and epsilon isoforms the Kinase-Glo™ Luminescent Kinase Assay (Promega, Cat # V6712/3/4) following the manufacturer's instructions.
# PKC delta = PKC delta (Homo sapiens, UniProt Q05655); test: Kinase-Glo Luminescent Kinase Assay; type: biochemical; settings: read-out: % Inhibition PKC-δ
# Procedure: as §1
# [3] = Acute toxicity studies in mice (IV, topical, oral); type: in vivo, mouse
# Procedure: Acute toxicity studies were performed on mice using three different delivery routes: IV (tail), topical and oral. […] The LD50 obtained from the IV study was determined to be 750 μg-1 mg per mouse. The “no observed adverse effect level” was determined to be 250 μg per mouse, approximately twice the concentration of TIM 10 provided to mice in the studies discussed above.
# [4] = system: peripheral blood lymphocytes; test: Peripheral blood lymphocyte survival and blastogenic response to mitogens; type: cell-based; settings: primary lymphocytes of pigs, mice and human
# [5] = Flocculation of blood serum and plasma component; settings: pigs, mice and human
# Description: In order to prevent this flocculation and increase the efficacy of the TIM compounds, advantage was taken of the properties of TPGS (alpha tocopherol polyethylene glycol succinate). The adjuvant may also protect the TIM compounds from enzymatic degradation.
# PKC beta 1 = PKC beta 1 (Homo sapiens, UniProt P05771); test: Kinase-Glo Luminescent Kinase Assay; type: biochemical; design: purchased; settings: read-out: % Inhibition PKC-βI
# Procedure: as §1
# PKC epsilon = molecular target: T2, PKC epsilon (Homo sapiens, UniProt Q02156); test: Kinase-Glo Luminescent Kinase Assay; type: biochemical; design: purchased; settings: read-out: % Inhibition PKC-ε
# T2 sequence (Q02156 1-737): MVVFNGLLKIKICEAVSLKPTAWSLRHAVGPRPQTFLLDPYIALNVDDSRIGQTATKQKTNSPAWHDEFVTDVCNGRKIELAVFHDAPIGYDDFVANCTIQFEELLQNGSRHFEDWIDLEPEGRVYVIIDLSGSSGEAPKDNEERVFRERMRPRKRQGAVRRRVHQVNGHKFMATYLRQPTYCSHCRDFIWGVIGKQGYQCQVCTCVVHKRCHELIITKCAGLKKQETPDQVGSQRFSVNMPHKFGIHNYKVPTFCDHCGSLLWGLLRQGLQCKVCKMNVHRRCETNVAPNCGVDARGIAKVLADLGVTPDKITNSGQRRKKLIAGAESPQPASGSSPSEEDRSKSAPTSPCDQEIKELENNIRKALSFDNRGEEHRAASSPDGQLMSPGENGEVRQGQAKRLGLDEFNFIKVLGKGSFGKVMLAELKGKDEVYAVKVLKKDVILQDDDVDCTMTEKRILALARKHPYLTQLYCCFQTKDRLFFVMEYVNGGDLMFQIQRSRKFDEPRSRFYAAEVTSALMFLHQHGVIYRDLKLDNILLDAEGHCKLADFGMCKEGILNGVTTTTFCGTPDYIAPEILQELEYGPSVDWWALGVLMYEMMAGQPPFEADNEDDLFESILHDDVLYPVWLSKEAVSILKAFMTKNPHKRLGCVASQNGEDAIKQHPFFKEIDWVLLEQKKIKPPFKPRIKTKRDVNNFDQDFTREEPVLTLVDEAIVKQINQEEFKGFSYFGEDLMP
# Procedure: as §1
# PKC beta 1, sequence (P05771 whole entry): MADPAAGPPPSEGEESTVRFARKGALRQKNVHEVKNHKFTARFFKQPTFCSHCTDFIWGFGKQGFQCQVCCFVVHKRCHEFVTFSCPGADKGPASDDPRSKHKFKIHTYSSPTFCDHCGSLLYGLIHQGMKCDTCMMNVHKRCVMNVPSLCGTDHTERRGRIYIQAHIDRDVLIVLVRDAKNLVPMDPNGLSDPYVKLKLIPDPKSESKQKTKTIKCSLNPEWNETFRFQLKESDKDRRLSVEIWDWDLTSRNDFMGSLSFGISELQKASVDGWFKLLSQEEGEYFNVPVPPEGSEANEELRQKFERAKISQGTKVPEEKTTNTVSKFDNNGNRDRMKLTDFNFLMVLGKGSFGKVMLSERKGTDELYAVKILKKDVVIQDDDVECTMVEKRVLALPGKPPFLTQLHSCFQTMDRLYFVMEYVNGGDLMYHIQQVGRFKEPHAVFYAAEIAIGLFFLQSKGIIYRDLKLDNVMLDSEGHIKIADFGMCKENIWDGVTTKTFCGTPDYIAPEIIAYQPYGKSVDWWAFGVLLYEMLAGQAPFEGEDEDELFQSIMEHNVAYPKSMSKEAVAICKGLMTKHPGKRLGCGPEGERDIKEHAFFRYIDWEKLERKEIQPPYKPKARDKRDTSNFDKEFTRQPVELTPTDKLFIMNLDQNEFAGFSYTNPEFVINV
# PKC delta, sequence (Q05655 whole entry): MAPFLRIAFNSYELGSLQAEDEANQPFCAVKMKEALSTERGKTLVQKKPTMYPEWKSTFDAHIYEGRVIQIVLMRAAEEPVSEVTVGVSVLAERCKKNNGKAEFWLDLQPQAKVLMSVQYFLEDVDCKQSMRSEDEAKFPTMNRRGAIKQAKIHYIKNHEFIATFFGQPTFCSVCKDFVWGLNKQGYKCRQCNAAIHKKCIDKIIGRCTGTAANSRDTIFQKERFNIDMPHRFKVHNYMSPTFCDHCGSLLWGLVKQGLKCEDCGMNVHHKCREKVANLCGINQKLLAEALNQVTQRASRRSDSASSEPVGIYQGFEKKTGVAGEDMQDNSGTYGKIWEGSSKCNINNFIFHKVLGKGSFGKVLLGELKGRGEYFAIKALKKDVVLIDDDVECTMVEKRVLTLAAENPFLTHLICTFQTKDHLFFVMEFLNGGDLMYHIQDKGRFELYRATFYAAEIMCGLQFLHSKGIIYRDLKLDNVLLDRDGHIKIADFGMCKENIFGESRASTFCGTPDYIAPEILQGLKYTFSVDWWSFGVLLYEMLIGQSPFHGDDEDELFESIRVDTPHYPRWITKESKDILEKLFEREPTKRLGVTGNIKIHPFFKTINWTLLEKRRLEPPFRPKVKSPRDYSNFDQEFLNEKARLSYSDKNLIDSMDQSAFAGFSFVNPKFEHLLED
smiles,measurement,setting,value
CC[C@H](C)[C@H](NC(=O)[C@H](CO)NC(=O)[C@@H](NC(=O)CNC(=O)[C@@H](NC(=O)[C@H](CC(C)C)NC(=O)[C@H](CC(N)=O)NC(=O)[C@H](CCC(N)=O)NC(=O)[C@H](C)NC(=O)[C@H](CC(=O)O)NC(=O)CNC(=O)CNC(=O)[C@H](CCCCN)NC(=O)[C@@H](NC(=O)[C@H](CCC(=O)O)NC(=O)[C@H](CCC(N)=O)NC(=O)[C@@H](NC(=O)CNC(=O)[C@H](CCCCN)NC(=O)[C@H](C)NC(C)=O)[C@@H](C)CC)C(C)C)[C@@H](C)CC)[C@@H](C)CC)C(N)=O [PRE 3] (Ac-AKGIQEVKGGDAQNLIGISI-NH2),Band Intensity,PKC-α [1]; 75 μg,0.909
same,Band Intensity,PKC-α [1]; 300 μg,0.888
same,Band Intensity,PKC-α [1]; 600 μg,0.889
same,Band Intensity,PKC-α [1]; 3.75 mg,0.603
same,Band Intensity,PKC-α [1]; 5.25 mg,0.599
same,Band Intensity,PKC-α [1]; 7.5 mg,0.589
same,Band Intensity,PKC-α [2]; 600 μg,0.888
same,Band Intensity,PKC-α [2]; 3.75 mg,0.600
same,Band Intensity,PKC-α [2]; 5.25 mg,0.603
same,Band Intensity,PKC-α [2]; 7.5 mg,0.609
CC[C@H](C)[C@H](NC(=O)[C@H](CO)NC(=O)[C@@H](NC(=O)CNC(=O)[C@@H](NC(=O)[C@H](CC(C)C)NC(=O)[C@H](CC(N)=O)NC(=O)[C@H](CCC(N)=O)NC(=O)[C@H](C)NC(=O)[C@H](CC(=O)O)NC(=O)[C@H](CCCCN)NC(=O)CNC(=O)CNC(=O)CNC(=O)CNC(=O)CNC(=O)CNC(=O)CNC(=O)[C@H](CC(C)C)NC(=O)[C@H](CCCNC(=N)N)NC(=O)[C@H](Cc1ccccc1)NC(=O)[C@H](CCCCNC(=O)CN(CCN)C(=O)Cn1cnc2c(N)ncnc21)NC(=O)[C@H](CCCNC(=N)N)NC(=O)[C@H](CCCNC(=N)N)NC(=O)[C@H](Cc1ccccc1)NC(C)=O)[C@@H](C)CC)[C@@H](C)CC)C(N)=O [TIM 10] (Ac-FRRK(PNA(A))FRLGGGGGGGKDAQNLIGISI-NH2),inhibition in cell growth,MDA MB231 cells,25%
same,inhibition at 15 µM,PKC alpha; 15.0 μM,31.4%
same,inhibition at 30 µM,PKC alpha; 30.0 μM,28.6%
same,inhibition at 15 µM,PKC delta; 15.0 μM,15.8%
same,inhibition at 30 µM,PKC delta; 30.0 μM,22.1%
same,no observed adverse effect level,[3]; IV study,250 μg per mouse
same,toxic effects,[3]; topically or orally,No toxic effects were observed at any dose
same,apoptosis of peripheral blood lymphocytes,[4],do not induce apoptosis
same,blastogenic response to mitogens,[4],do not drastically limit the blastogenic response
same,flocculation of a component of blood serum and plasma,[5],cause flocculation
same,inhibition at 15 µM,PKC beta 1; 15.0 μM,74%
same,inhibition at 30 µM,PKC beta 1; 30.0 μM,100%
same,inhibition at 15 µM,PKC epsilon; 15.0 μM,-11%
same,inhibition at 30 µM,PKC epsilon; 30.0 μM,85%
